In US9132131B2, “Use of adenosine A3 receptor agonists for treatment of neuropathic pain” (Saint Louis University, priority 2011, dated 2015):

Key:
[1] = test system: acute nociception (hot plate latency); assay: Hot plate assay for acute nociception; assay type: in vivo, mice; settings: 0.5 μmol/kg
Protocol: Tail flick and hot plate assay in mice for acute nociception. The tail flick test, which measures latency(s) of tail withdrawal from a noxious radiant heat source (Ugo Basile; model number 37360) was used to measure thermal nociceptive sensitivity in mice with baseline latencies of 3-5 seconds and a cut-off time of 15 seconds to prevent tissue injury. Tail flick latencies were taken before and at 30, 60 and 120 minutes after i.p. injection of IB-MECA, MRS1898 (0.5 μmol/kg) or its vehicle (0.1% DMSO in saline). For the hot plate test, nociceptive thresholds were determined as previously reported by our group by measuring latencies (in seconds) of mice placed in a transparent glass cylinder on a hot plate maintained at 52° C.. Responses indicative of nociception included intermittent lifting and/or licking of the hindpaws or escape behavior. Hot plate latencies were taken in mice from all groups before and after drug administration. A cut-off latency of 15 seconds was employed to prevent tissue damage.

[2] = test system: CCI of the sciatic nerve (mechano-allodynia); assay: CCI model of neuropathic pain, mechano-allodynia (von Frey PWT); assay type: in vivo, mice
Protocol: CCI model of neuropathic pain. CCI to the sciatic nerve of the left hind leg in mice was performed under general anaesthesia using the well-characterized Bennett model. Briefly, mice (weighing 25-30 g at the time of surgery) were anesthetized with 3% isoflurane/100% O2 inhalation and maintained on 2% isoflurane/100% O2 for the duration of surgery. The left thigh was shaved, scrubbed with Nolvasan® and a small incision (1-1.5 cm in length) was made in the middle of the lateral aspect of the left thigh to expose the sciatic nerve. The nerve was loosely ligated around the entire diameter of the nerve at three distinct sites (spaced 1 mm apart) using silk sutures (6.0). The surgical site was closed with a single muscle suture and a skin clip. Pilot studies established that under our experimental conditions peak mechano-allodynia develops by day 5-day 7 (D5-D7) following CCI. Test substances or their vehicles were given subcutaneously (s.c.), intraperitoneally (i.p.) or orally by gavage (0.1 ml) at peak mechano-allodynia (D7).
Behavioral testing. […] The plantar aspect of hindpaws were probed three times with calibrated von Frey filaments (Stoelting, mice: 0.07-2.00 grams; rats: 0.407-26 grams) according to the “up-and-down” method. […] Briefly, each rat was placed in a Plexiglas chamber (28×40×35-cm, wire mesh floor) and after its acclimation, a servo-controlled mechanical stimulus was applied to the plantar surface that exerted a progressively increasing punctate pressure up to 50 grams within 10 seconds. Mechanical threshold was assessed three times at each time point to yield a mean value, reported as PWT (grams). […] Mechano-hyperalgesia was assessed in rats by the Randall and Sellitto paw pressure test using an analgesiometer (Ugo Basile). The nociceptive threshold was defined as the force (grams) at which the rat withdrew its paw (cut off set at 250 grams).
Determining ED50 values. Dose response data were curve-fitted using the least sum of square method by a normalized 4-parameter, variable slope non-linear analysis of the % Reversal of Mechano-allodynia in CCI and % Prevention of Mechano-allodynia or Mechano-hyperalgesia in CIPN using GraphPad Prism (Release 5.03, GraphPad Software, Inc.) from which the ED50 was determined and reported with the 95% confidence interval (95% CI). In the CCI model, the % Reversal of Mechano-allodynia=(PWT1h−PWTD7)/(PWTD0−PWTD7)×100, where PWTD0=Paw Withdrawal Threshold (g) at D0, PWT1h=Paw Withdrawal Threshold (g) at 1 hour after the administration of IB-MECA, gabapentin, amitriptyline, or combinations of IB-MECA with gabapentin or amitriptyline, and PWTD7=Paw Withdrawal Threshold (grams) at D7 prior to drug administration.
Statistical Analysis. Data are expressed as mean±SD for n animals. Behavioral data were analyzed by two-way repeated measures ANOVA with Bonferroni comparisons (full time course studies) or one-way ANOVA Dunnett's comparisons (1 hour behavioral data). The dose response curves were compared to a globally fitted curve using the extra sum-of-squares F-test comparisons to determine whether the data represented distinct curves between treatments. Significant differences were defined at a P<0.05. All statistical analysis was performed using GraphPad Prism (v5.03, GraphPad Software, Inc.).

[3] = test system: bortezomib-induced neuropathic pain; assay: Bortezomib-induced neuropathic pain (mechano-allodynia, mechano-hyperalgesia); assay type: in vivo, rats
Protocol: Bortezomib or vehicle (5% Tween 80, 5% ethanol) was injected i.p. in rats on five consecutive days (D0-D4; 0.2 mg/kg) for a final cumulative dose of 1 mg/kg (G. J. Bennett and W. H. Xiao, personal communication). Test substances or their vehicle were given i.p. (0.2 ml) 30 min before the chemotherapeutic agent or its vehicle on D0 (baseline) and then daily until D15 or D17. Behavioral responses (mechano-allodynia and mechano-hyperalgesia) were measured on D0 prior to the first i.p. injection of the chemotherapeutic agent and subsequently at various time points. If testing coincided with a day when rats received test substance, behavioral measurements were taken always before the injection of the test substance. Chemotherapeutic treatments result in bilateral allodynia and hyperalgesia without differences in left and right paw withdrawal threshold (PWT, grams) in any group at any time point, thus values from both paws were averaged.
Behavioral testing. […] The plantar aspect of hindpaws were probed three times with calibrated von Frey filaments (Stoelting, mice: 0.07-2.00 grams; rats: 0.407-26 grams) according to the “up-and-down” method. […] Mechanical threshold was assessed three times at each time point to yield a mean value, reported as PWT (grams). […] Mechano-hyperalgesia was assessed in rats by the Randall and Sellitto paw pressure test using an analgesiometer (Ugo Basile). […]

[4] = test system: motor function (Rotarod latency); assay: Rotarod test; assay type: in vivo, mice; settings: 0.5 μmol/kg i.p., 30, 60, 120 minutes
Protocol: Rotarod test in mice: Mice were trained before experimentation for their ability to remain for 60 seconds on a revolving Rotarod for mice apparatus (Ugo Basile; accelerating units increasing from 5 to 40 rpm in 60 sec). Mice were injected i.p. with IB-MECA, MRS1898 (0.5 μmol/kg) or vehicle (0.1% DMSO in saline) and then examined at 30, 60 and 120 minutes after administration for motor impairments on the Rotarod. The latency time to fall off the Rotarod was determined with a cut-off time of 120 seconds.

[5] = test system: paclitaxel-induced neuropathic pain; assay: Paclitaxel-induced neuropathic pain (mechano-allodynia, mechano-hyperalgesia); assay type: in vivo, rats

In the case of `CNC(=O)[C@H]1O[C@@H](n2cnc3c(NCc4cccc(I)c4)ncnc32)[C@H](O)[C@@H]1O` [IB-MECA, N^6-(3-iodobenzyl)-adenosine-5′-N-methyluronamide], the “effect on the hot plate” value [1] was “had no effect”, the “anti-allodynic effect of low dose alone” value ([2]; 0.2 μmol/kg) was “devoid of anti-allodynic effects” and the “reversal of mechano-allodynia on consecutive daily injections” value ([2]; 0.5 μmol/kg i.p. daily D8-D15, compared to D7) was “reversed mechano-allodynia to the same degree as observed on D7”. For the same compound, the “effect on PWT in contralateral paws” value ([2]; D7 after CCI, drug alone) was “lacked effect”, the “time of maximal reversal of mechano-allodynia” value ([2]; after single administration on D7) was at most 1 h and the “onset of reversal of allodynia” value ([2]; i.p. on D7) was 30 min. For the same compound, the “Emax, reversal of mechano-allodynia” value ([2]; mice, D7 after CCI, drug alone) was 100%, the “ED50, reversal of mechano-allodynia” value ([2]; mice, D7 after CCI, ipsilateral paw, at time of maximal reversal, drug alone (IB-MECA i.p., morphine s.c., gabapentin i.p., amitriptyline oral)) was 0.4 µmol/kg and the “reversal of mechano-allodynia in ipsilateral paws” value ([2]; single dose D7, IB-MECA 0.2-2, CI-IB-MECA 0.6, MRS1898 0.5 μmol/kg i.p., morphine 0.11-35 s.c., gabapentin 18-584 i.p., amitriptyline 3-191 μmol/kg oral) was “reversed allodynia”. For the same compound, the “effect on development of bortezomib-induced mechano-allodynia and mechano-hyperalgesia” value ([3]; 0.2 μmol/kg/d (not shown)) was “blocked the development”, the “neuropathic pain after treatment was discontinued on D17” value ([3]; bortezomib model) was “did not emerge” and the Rotarod deficits [4] was “did not induce Rotarod deficits”. For the same compound, the “effect on paclitaxel-induced neuropathic pain” value ([5]; 0.02-0.2 μmol/kg/d i.p. D0-D15) was “dose-dependently attenuated”, the “effect on PWT when administered alone (vehicle groups)” value ([5]; IB-MECA 0.2 μmol/kg/d in any of the chemotherapy models, MRS1523 5 μmol/kg/d) was “did not affect PWT” and the “neuropathic pain after discontinuation of treatment on D15” value ([5]; paclitaxel model, followed through D25) was “did not emerge through D25”. For the same compound, the “D16 ED50, prevention of paclitaxel-induced mechano-allodynia” value ([5]; rats, daily i.p. D0-D15) was 0.02 µmol/kg/day and the “D16 ED50, prevention of paclitaxel-induced mechano-hyperalgesia” value ([5]; rats, daily i.p. D0-D15) was 0.03 µmol/kg/day.
